Test results published in patent US10870647B2, “Imidazopyridine derivative, method for preparing same, and pharmaceutical composition containing same as active ingredient for preventing or treating cancer” (DAEGU-GYEONGBUK MEDICAL INNOVATION FOUNDATION, priority 2016, dated 2020).

How the values were obtained:
Assay in all cases: Kinase selectivity, scanMAX Kinase assay panel (DiscoverX), % control at 1 uM
Format in all cases: binding
[1] = molecular target: T1, scanMAX Kinase assay panel (Homo sapiens, UniProt O94768); conditions: DRAK2; 1 uM; read-out: Percent Control (%)
T1 construct: purchased DiscoverX
T1 sequence (O94768 1-372): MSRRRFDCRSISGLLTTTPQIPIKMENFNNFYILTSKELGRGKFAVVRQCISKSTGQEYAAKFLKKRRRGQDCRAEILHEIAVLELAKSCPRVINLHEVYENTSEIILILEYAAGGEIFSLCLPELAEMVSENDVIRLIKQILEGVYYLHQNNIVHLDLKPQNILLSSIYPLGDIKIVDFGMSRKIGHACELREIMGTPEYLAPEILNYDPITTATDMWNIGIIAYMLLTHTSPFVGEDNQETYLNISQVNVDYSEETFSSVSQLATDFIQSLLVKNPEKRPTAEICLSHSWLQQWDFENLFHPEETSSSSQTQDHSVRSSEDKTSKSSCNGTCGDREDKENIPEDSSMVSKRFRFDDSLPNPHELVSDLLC
Procedure, shortened: (§1)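 Activity was called for kinases showing % control under 35, calculated from compound signal relative to positive and negative controls. Each compound screened at 1 uM against the DiscoverX scanMAX panel.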

[2] = molecular target: T2, scanMAX Kinase assay panel (Homo sapiens, UniProt P49761); conditions: CLK3; 1 uM; read-out: Percent Control (%)
T2 construct: purchased DiscoverX
Procedure, shortened: as §1

[3] = molecular target: T3, scanMAX Kinase assay panel (Homo sapiens, UniProt Q04759); conditions: PRKCQ; 1 uM; read-out: Percent Control (%)
T3 construct: purchased DiscoverX
Procedure, shortened: as §1

[4] = molecular target: T4, scanMAX Kinase assay panel (Homo sapiens, UniProt Q13470); conditions: TNK1; 1 uM; read-out: Percent Control (%)
T4 construct: purchased DiscoverX
T4 sequence (Q13470 1-666): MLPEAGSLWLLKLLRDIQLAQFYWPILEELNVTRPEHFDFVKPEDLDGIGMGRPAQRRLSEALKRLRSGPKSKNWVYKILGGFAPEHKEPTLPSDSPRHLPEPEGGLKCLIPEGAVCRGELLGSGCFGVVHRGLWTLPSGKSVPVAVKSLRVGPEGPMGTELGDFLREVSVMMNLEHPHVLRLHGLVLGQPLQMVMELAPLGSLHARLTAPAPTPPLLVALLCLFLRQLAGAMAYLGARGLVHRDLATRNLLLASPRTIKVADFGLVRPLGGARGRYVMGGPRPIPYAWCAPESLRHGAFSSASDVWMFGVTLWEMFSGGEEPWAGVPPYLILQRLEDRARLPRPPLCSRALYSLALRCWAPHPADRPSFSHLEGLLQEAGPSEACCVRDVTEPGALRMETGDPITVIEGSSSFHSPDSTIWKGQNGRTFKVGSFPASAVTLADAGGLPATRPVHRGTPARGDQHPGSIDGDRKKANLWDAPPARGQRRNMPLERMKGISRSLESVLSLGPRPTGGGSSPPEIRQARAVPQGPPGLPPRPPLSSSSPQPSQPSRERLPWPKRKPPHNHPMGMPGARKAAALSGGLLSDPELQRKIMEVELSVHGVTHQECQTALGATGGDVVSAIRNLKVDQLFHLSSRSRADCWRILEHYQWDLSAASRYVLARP
Procedure, shortened: as §1

[5] = molecular target: T5, scanMAX Kinase assay panel (Homo sapiens, UniProt Q15375); conditions: EPHA7; 1 uM; read-out: Percent Control (%)
T5 construct: purchased DiscoverX
Procedure, shortened: as §1

[6] = molecular target: T6, scanMAX Kinase assay panel (Homo sapiens, UniProt Q9H2G2); conditions: SLK; 1 uM; read-out: Percent Control (%)
T6 construct: purchased DiscoverX
Procedure, shortened: as §1

T5 sequence (Q15375 28-998): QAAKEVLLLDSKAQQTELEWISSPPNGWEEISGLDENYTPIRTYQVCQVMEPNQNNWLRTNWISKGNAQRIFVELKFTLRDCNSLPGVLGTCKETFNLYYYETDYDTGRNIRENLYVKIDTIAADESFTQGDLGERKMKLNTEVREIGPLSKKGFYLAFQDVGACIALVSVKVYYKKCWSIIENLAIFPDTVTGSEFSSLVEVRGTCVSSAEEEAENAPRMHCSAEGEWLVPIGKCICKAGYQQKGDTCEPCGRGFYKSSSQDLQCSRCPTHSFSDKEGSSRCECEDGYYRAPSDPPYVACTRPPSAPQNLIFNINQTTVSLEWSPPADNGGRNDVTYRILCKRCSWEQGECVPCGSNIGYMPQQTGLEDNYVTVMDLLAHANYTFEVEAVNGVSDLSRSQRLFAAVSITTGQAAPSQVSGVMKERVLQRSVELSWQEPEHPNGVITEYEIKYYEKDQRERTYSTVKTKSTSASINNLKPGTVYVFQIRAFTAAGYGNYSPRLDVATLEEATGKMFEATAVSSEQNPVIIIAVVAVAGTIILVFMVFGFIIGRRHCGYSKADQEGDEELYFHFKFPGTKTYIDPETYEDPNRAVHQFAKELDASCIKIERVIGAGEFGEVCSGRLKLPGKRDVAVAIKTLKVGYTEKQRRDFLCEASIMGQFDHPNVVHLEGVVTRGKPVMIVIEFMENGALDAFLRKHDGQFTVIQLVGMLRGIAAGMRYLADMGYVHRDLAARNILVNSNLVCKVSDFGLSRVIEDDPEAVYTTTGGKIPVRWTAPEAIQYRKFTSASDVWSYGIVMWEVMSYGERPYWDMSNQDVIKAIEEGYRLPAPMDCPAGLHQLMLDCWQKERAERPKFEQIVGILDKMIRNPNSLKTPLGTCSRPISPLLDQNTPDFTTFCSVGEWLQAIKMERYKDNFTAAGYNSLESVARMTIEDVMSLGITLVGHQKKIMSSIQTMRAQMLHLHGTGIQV
T3 sequence (Q04759 whole entry): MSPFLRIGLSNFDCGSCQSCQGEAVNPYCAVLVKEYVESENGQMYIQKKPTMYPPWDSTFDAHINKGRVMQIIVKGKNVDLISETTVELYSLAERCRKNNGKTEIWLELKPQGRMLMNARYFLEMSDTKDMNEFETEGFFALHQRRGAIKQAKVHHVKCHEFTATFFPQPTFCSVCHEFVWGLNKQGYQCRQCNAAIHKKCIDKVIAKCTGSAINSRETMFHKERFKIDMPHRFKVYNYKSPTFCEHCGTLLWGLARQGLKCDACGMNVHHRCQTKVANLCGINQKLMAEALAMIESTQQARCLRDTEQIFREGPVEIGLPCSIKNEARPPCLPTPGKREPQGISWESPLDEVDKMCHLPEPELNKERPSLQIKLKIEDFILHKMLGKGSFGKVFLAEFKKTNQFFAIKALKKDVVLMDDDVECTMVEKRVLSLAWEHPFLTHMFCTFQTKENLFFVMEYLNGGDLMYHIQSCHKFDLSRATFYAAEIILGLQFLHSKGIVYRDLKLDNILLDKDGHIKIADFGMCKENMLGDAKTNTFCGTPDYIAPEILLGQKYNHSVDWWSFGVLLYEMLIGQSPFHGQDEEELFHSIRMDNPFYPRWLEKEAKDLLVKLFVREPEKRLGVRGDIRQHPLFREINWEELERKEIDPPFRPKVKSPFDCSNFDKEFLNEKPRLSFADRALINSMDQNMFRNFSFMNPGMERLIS
T6 sequence (Q9H2G2 whole entry): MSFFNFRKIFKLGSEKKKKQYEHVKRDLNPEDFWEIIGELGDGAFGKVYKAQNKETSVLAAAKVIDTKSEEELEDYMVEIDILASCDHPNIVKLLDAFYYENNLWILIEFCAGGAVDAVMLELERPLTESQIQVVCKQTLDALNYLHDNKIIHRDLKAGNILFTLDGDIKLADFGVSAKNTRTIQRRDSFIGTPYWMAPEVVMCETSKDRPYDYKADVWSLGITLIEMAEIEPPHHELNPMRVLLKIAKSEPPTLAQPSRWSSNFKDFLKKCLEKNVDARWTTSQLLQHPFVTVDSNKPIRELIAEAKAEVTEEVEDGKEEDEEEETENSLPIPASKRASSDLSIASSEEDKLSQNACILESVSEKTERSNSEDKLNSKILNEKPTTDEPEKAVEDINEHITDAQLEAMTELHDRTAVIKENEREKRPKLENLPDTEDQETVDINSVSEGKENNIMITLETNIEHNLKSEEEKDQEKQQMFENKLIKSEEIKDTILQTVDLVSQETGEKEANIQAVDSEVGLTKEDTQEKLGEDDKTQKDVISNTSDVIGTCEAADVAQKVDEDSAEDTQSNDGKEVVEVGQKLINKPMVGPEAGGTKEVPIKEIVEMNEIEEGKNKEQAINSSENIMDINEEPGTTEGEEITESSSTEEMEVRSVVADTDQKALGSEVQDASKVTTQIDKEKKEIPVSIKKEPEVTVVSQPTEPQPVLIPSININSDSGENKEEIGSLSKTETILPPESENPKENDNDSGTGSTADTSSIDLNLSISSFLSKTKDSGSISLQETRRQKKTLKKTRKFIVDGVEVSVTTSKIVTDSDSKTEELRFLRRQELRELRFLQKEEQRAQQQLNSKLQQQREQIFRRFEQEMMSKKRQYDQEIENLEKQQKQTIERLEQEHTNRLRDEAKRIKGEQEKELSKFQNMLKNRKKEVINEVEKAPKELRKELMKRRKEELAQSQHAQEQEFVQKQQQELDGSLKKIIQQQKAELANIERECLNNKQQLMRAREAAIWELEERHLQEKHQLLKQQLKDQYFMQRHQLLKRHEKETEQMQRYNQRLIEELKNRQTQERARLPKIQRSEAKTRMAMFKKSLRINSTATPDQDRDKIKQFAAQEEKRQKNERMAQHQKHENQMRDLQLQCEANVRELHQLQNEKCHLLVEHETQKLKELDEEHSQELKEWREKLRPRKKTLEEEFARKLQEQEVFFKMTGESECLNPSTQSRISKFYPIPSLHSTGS
T2 sequence (P49761 whole entry): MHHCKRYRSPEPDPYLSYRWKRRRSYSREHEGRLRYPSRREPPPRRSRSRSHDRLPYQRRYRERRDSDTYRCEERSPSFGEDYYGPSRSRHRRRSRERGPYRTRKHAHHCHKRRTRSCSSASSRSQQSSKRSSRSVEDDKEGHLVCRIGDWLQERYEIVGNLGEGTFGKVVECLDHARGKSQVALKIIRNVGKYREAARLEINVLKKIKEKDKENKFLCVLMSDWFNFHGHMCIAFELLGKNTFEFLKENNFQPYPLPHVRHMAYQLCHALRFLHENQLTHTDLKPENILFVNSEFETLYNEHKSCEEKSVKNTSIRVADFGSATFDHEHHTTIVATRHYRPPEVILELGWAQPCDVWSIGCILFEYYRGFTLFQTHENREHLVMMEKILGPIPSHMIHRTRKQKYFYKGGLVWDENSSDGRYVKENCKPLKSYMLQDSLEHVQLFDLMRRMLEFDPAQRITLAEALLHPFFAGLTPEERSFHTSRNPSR

Row | SMILES | remaining binding at 1 µM [1] [%] | remaining binding at 1 µM [2] [%] | remaining binding at 1 µM [3] [%] | remaining binding at 1 µM [4] [%] | remaining binding at 1 µM [5] [%] | remaining binding at 1 µM [6] [%]
1 | Cc1ccc(C(=O)Nc2ccc(CN3CCN(C)CC3)c(C(F)(F)F)c2)cc1C#Cc1cnc2c(Nc3cnn(C)c3)cccn12 [Example 1, 4-methyl-3-((8-((1-methyl-1H-pyrazol-4-yl)amino)imidazo[1,2-a]pyridin-3-yl)ethynyl)-N-(4-((4-methylpiperazin-1-yl)methyl)-3-(trifluoromethyl)phenyl)benzamide] | 90 | 48 | 53 | 0 | 5 | 0
2 | Cc1cn(-c2cc(NC(=O)c3ccc(C)c(C#Cc4cnc5c(Nc6cnn(C)c6)cccn45)c3)cc(C(F)(F)F)c2)cn1 [Example 12, 4-methyl-N-(3-(4-methyl-1H-imidazol-1-yl)-5-(trifluoromethyl)phenyl)-3-((8-((1-methyl-1H-pyrazol-4-yl)amino)imidazo[1,2-a]pyridin-3-yl)ethynyl)benzamide] | 95 | 100 | 87 | 19 | 69 | 5
3 | Cc1ccc(NC(=O)C2(C(=O)Nc3ccc(F)cc3)CC2)cc1C#Cc1cnc2c(Nc3cnn(C(C)C)c3)cccn12 [Example 78] | 100 | 100 | 85 | 100 | 100 | 11
